Data reported in patent US9012431B2, “Boron-containing small molecules as anti-inflammatory agents” (Anacor Pharmaceuticals, Inc., priority 2008, dated 2015).
Read-outs that look alike come from different tables or passages of the source.

Tests used:
[1] = tested on: Salmonella typhimurium strains TA98, TA100, TA1535, and TA1537; assay: Bacterial mutagenicity assay with/without Aroclor-induced S9 (Salmonella); format: cell-based; conditions: up to 5000 μg per plate; presence or absence of Aroclor-induced S9 liver fraction
[2] = tested on: IL-5 production by human PBMCs; assay: IL-5 production by LPS- or PHA-stimulated PBMCs; format: cell-based
[3] = tested on: TNF-α, IFN-γ, IL-1μ, IL-2, IL-4, IL-5, IL-6, IL-8, IL-10, IL-12, and IL-23; assay: Release of pro-inflammatory cytokines (summary statement); format: cell-based
Text: This activity is explained in part by the inhibition of phosphodiesterase-4 (PDE-4).

[4] = tested on: Escherichia coli strain WP2 uvrA; assay: Bacterial mutagenicity assay with/without Aroclor-induced S9 (E. coli); format: cell-based; conditions: up to 5000 μg per plate; presence or absence of Aroclor-induced S9 liver fraction
[5] = tested on: CD-1 (Crl.) derived male mice; assay: Phorbol Ester Induced Mouse Ear Edema Model; format: in vivo; conditions: topical, 6 h, 1 mg/ear × 2 topical, vehicle not given, ear swelling 6 hours after PMA
How it was run: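 Test compounds in acetone:ethanol 1:1 were applied topically to both ears 30 min before and 15 min after PMA challenge; dexamethasone positive control followed the same schedule. Ear thickness was measured by micrometer 6 h after PMA, and percent inhibition was calculated from ear-thickness increase versus vehicle controls.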

PDE7A1 = molecular target: T1, PDE7A1 (Homo sapiens, UniProt Q13946); assay: PDE7 inhibition; format: biochemical
T1 construct: made in house; host or cells: baculoviral expression system

[6] = tested on: IFN-γ secretion from PBMCs; assay: IFN-γ secretion from PBMCs stimulated with PHA; format: cell-based, human; conditions: PBMC
Text: Compounds were screened by a biochemical assay against PDE4 enzyme and cell-based cytokine release assays using PBMCs stimulated by LPS or phytohemagglutinin (PHA).

T1 sequence (Q13946 whole entry): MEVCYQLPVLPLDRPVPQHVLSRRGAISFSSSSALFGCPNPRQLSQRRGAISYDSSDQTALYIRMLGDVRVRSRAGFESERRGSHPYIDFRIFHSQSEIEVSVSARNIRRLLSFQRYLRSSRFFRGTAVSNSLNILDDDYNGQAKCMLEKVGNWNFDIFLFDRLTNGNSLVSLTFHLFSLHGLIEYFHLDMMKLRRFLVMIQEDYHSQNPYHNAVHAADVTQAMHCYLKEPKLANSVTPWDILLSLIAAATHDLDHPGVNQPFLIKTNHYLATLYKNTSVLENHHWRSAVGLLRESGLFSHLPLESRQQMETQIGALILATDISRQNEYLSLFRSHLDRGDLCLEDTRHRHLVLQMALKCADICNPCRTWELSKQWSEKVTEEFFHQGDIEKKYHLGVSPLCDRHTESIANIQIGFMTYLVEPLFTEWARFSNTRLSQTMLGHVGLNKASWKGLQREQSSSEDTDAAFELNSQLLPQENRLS

For `N#Cc1ccc(Oc2ccc3c(c2)COB3O)cc1` [C17, 5-(4-cyanophenoxy)-1-hydroxy-1,3-dihydro-2,1-benzoxaborole], the mutagenic activity [1] was “no mutagenic activity”, the IC50 ([2]; PBMC, LPS- and PHA-induced cytokine production by human PBMCs, read-out: IC50 IL-5 (Th2 cytokines)) was 1000 to 10000 nM and the “IL-5 inhibition, range in words” value ([2]; PBMCs) was “low micromolar range”. The “release of pro-inflammatory cytokines including TNF-α, IFN-γ, IL-1μ, IL-2, IL-4, IL-5, IL-6, IL-8, IL-10, IL-12, and IL-23” value [3] was “inhibition of the release”, the mutagenic activity [4] was “no mutagenic activity” and the inhibition in vivo at 1 mg [5] was 60 to 90%. For the same compound, the IC50 (PDE7A1; read-out: PDE7 IC50) was 730 nM, the IC50 (PDE7A1; standard: BRL-50481, read-out: IC50 PDE7A1) was < 1000 nM and the IC50 ([6]; Homo sapiens, PBMCs stimulated with PHA, read-out: IFN-γ secretion IC50) was 270 nM. The IC50 ([6]; LPS- and PHA-induced cytokine production by human PBMCs, read-out: IC50 IFNg (Th1 cytokines)) was < 1000 nM.
